Molecular target: T1, Alpha-methylacyl-CoA racemase (Rattus norvegicus, UniProt P70473)
T1 sequence (P70473 whole entry): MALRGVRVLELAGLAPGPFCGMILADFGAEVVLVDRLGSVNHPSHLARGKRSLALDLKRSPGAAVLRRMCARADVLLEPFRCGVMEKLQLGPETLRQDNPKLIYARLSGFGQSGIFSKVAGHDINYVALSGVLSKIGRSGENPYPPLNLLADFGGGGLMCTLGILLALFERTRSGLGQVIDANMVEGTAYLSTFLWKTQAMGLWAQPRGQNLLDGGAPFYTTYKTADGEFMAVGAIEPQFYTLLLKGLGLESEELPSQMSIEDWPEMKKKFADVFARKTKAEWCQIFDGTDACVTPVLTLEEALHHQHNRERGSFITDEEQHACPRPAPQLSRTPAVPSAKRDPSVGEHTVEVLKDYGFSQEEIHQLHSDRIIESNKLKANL
Experiment: AMACR Inhibition Assay
Conditions: pH 7; 37 °C
Method: AMACR activity was determined by monitoring the interconversion of the (25R/S)-isomer of THC-CoA. Reaction product was analyzed by resolution of (25S)-or (25R)-THC-CoA using HPLC, which was carried out with a reversed-phase C18-column and a linear gradient of methanol in potassium phosphate buffer (50 mM, pH 5.3). Kinetic parameters were determined using direct linear plot analysis.

SMILES | Ki [µM]
CCCCCCCCCCCCCC(C(=O)SCCNC(=O)CCNC(=O)C(O)C(C)(C)COP(=O)(O)OP(=O)(O)OC[C@H]1O[C@@H](n2cnc3c(N)ncnc32)[C@H](O)[C@@H]1OP(=O)(O)O)C(F)F (some centres not stated) [2-Difluoromethylpentadecanoyl-CoA, 4] | 20
CCCCCCC(C)C(=O)SCCNC(=O)CCNC(=O)C(O)C(C)(C)COP(=O)(O)OP(=O)(O)OC[C@H]1O[C@@H](n2cnc3c(N)ncnc32)[C@H](O)[C@@H]1OP(=O)(O)O (stereo partly drawn) [{[(2R,3S,4R,5R)-5-(6-amino-9H-purin-9-yl)-4-hydroxy-2-({[hydroxy({[hydroxy(3-hydroxy-2,2-dimethyl-3-{[2-({2-[(2-methyloctanoyl)sulfanyl]ethyl}carbamoyl)ethyl]carbamoyl}propoxy)phosphoryl]oxy})phosphoryl]oxy}methyl)oxolan-3-yl]oxy}phosphonic acid] | 45
CCCCCCCCCCCCC(C)C(=O)SCCNC(=O)CCNC(=O)C(O)C(C)(C)COP(=O)(O)OP(=O)(O)OC[C@H]1O[C@@H](n2cnc3c(N)ncnc32)[C@H](O)[C@@H]1OP(=O)(O)O (some centres not stated) [2-methylmyristoyl CoA, 22] | 137
C[C@@H](CC[C@H](F)[C@@H](C)C(=O)SCCNC(=O)CCNC(=O)C(O)C(C)(C)COP(=O)(O)OP(=O)(O)OC[C@H]1O[C@@H](n2cnc3c(N)ncnc32)[C@H](O)[C@@H]1OP(=O)(O)O)[C@H]1CC[C@H]2[C@@H]3[C@H](O)C[C@@H]4C[C@H](O)CC[C@]4(C)[C@H]3C[C@H](O)[C@]12C (some centres not stated) [THC-CoA Analogue, 7] | 3.8

Now those with a lower Ki, led by results:

Ki [µM] | SMILES
2.3 | CCCCCCCCCCCCC[C@@H](F)[C@H](C)C(=O)SCCNC(=O)CCNC(=O)C(O)C(C)(C)COP(=O)(O)OP(=O)(O)OC[C@H]1O[C@@H](n2cnc3c(N)ncnc32)[C@H](O)[C@@H]1OP(=O)(O)O (stereo partly drawn) [(2S,3R)-3-fluoro-2-methylhexadecanoyl-CoA, 6]
1.3 | CCCCCCCCCCCCC[C@H](F)[C@@H](C)C(=O)SCCNC(=O)CCNC(=O)C(O)C(C)(C)COP(=O)(O)OP(=O)(O)OC[C@H]1O[C@@H](n2cnc3c(N)ncnc32)[C@H](O)[C@@H]1OP(=O)(O)O (stereo partly drawn) [((2R,3S)-3-Fluoro-2-methylhexadecanoyl-CoA, 5]
0.9 | CCCCCCCCCCCCC(C(=O)SCCNC(=O)CCNC(=O)C(O)C(C)(C)COP(=O)(O)OP(=O)(O)OC[C@H]1O[C@@H](n2cnc3c(N)ncnc32)[C@H](O)[C@@H]1OP(=O)(O)O)C(F)(F)F (some centres not stated) [2-Trifluoromethyltetradecanoyl-CoA, 3]

From BindingDB's records for doi:10.1021/jm0702377 (University of Liverpool, 2007)
